Source: patent EP0101441B1, “ANTI-VIRAL COMPOSITIONS” (SYNTEX (U.S.A.) INC., priority 1982, dated 1983)

Key:
HSV-1-PATTON [1] = experiment: Viral plaque titration in human fetal fibroblasts (HFF); assay type: cell-based, Herpes simplex virus; settings: Example 1, drug µg/ml: G* 1.2, BVDU 0.11, ACG 2.0, PAA 250, same in combinations; for VT (virus titre): HFF cells, no-drug control VT 147; for FTR (fold titre reduction): ratio of control virus titre to that of the test
Experimental: (§1) Human fetal fibroblasts (HFF) derived from fetal tissues were used in this study. Cells were grown and maintained in Basal Medium Eagle (BME) supplemented with 0.112% sodium bicarbonate, 2 mML- glutamine, 2 mg% Neomycin and 20% (vol/vol) calf serum.
(§2) A viral plaque titration method (Roizman and Roane, 1961) was used to determine the titer of the HSV strain. Tissue culture dishes (35 by 10 mm, Corning) were seeded with cells and used for assays when they were approximately 75% monolayer. Volumes (0.2 ml) of logarithmic dilutions of the virus strain were inoculated onto each of two tissue culture dishes and adsorbed for 1 hr with intermittent shaking, the inoculum was removed and 2 ml of 20% BME containing 0.5% human immune serum globulin was added. After a 48 h incubation period at 36°C in a 5% C02 atmosphere, the overlay m'edium was removed, and the cell sheets were stained with a 0.05% aqueous crystal violet solution. The plaque numbers were counted with the aid of a Nikon profile projector which magnified the dishes 10x. Duplicate results were averaged, and the number of plaque-forming units (PFU) was calculated. The virus titre is thus expressed as a number of plaque forming units to be seen after growth under these conditions.
(§3) In order to make comparisons between the activities of the various drugs and combinations, experiments were conducted by plaque titration to determine for each drug its viral ED-50 (i.e. the concentration thereof which inhibits HSV plaque formation by 50% in the HFF cells, as compared with cell cultures in the absence of the drug). For this purpose, tissue culture dishes (35 by 10 mm) with HFF cell monolayers at 75% confluence were inoculated with approximately 50 plaque-forming units of virus per 0.2 ml, and the virus was allowed to adsorb for 1 hr with intermittent shaking. After removal of the inoculum, 2 ml of 20% BME with 0.5% immune globulin and threefold dilutions of the appropriate drug were added to duplicate dishes. One set of dishes received no drug and was later used for the "no-drug control". After a 48 h incubation period at 36°C in a 5% C02 atmosphere, the overlay medium was removed, the cells were stained as described above, and plaques were counted. After averaging the counts of duplicate plates, the fraction of plaques emerging in the presence of each drug dilution was calculated as a percent of the control. Each drug titration was plotted on semilogarithmic graph paper, with the number of plaques per dish as the vertical axis and the drug concentration as the horizontal axis. The viral ED50 was calculated as that amount of drug per ml of overlay medium that inhibited plaque numbers by 50%, compared to a control (no drug), and this was read off the graphic plot of the data.
(§4) Three combinations of the drugs were then tested for activity by viral plaque titration, at concentrations which were multiples of the ED50 of the individual drugs. When G^*, BVDU or ACG was present, a concentration ten times that of its ED50 was used in the combination. This was intended to ensure a concentration sufficiently high to limit the numbers of partially drug-resistant virus plaques to a small fraction, in respect of each drug of the combination. In respect of PAA, a concentration of five times the ED50 was used, to avoid cell toxicity problems. The drugs were individually plaque-titrated at the same concentrations, for comparison purposes.
(§5) The results are given in the first Table headed "HSV-1-PATTON". The column headed "VT" gives the virus titre, expressed in plaque-forming units (PFU) per ml, x10^5; of course, the lower the figure, the greater the inhibitory, anti-viral effect of the tested drug (D). The column headed "FTR" gives the fold titre reduction which is the ratio of virus titre for the control, i.e. no drug, to that of the given test. […]

HSV-2-EL6 = experiment: as above; assay type: cell-based, Herpes simplex virus; settings: for VT (virus titre): HFF cells; for FTR (fold titre reduction): ratio of control virus titre to that of the test
HSV-2-EL3 = experiment: as above; assay type: cell-based, Herpes simplex virus; settings: Example 3, drug µg/ml: G* 2.0, PAA 82, combination 2.0+82; for VT (virus titre): HFF cells, no-drug control VT 77; for FTR (fold titre reduction): ratio of control virus titre to that of the test
HSV-1-227 = experiment: as above; assay type: cell-based, Herpes simplex virus; settings: Example 3, drug µg/ml: G* 2.0, PAA 80, combination 2.0+80; for VT (virus titre): HFF cells, no-drug control VT 28; for FTR (fold titre reduction): ratio of control virus titre to that of the test
Experimental: as §1, §2, §3, §4, §5

HSV-2-EL1 = experiment: as above; assay type: cell-based, Herpes simplex virus; settings: Example 3, drug µg/ml: G* 2.0, PAA 76, combination 2.0+76; for VT (virus titre): HFF cells, no-drug control VT 170; for FTR (fold titre reduction): ratio of control virus titre to that of the test
HSV-1-PATTON [2] = experiment: as above; assay type: cell-based, Herpes simplex virus; settings: Example 2, drug µg/ml: G* 0.7, PFA 80, combination 0.7+80; for VT (virus titre): HFF cells, no-drug control VT 3400; for FTR (fold titre reduction): ratio of control virus titre to that of the test
HSV-2-EL4 = experiment: as above; assay type: cell-based, Herpes simplex virus; settings: for VT (virus titre): HFF cells, no-drug control VT 750; for FTR (fold titre reduction): ratio of control virus titre to that of the test
HSV-1-EL11 = experiment: as above; assay type: cell-based, Herpes simplex virus; settings: Example 3, drug µg/ml: G* 0.4, PAA 25, combination 0.4+25; for VT (virus titre): HFF cells, no-drug control VT 8.0; for FTR (fold titre reduction): ratio of control virus titre to that of the test
[3] = cited from earlier work
[4] = Example 2, no-drug control VT 150, drug µg/ml: G* 0.7, PFA 80, combination 0.7+80
[5] = Example 2, drug µg/ml: G* 0.7, PFA 80, combination 0.7+80
[6] = Example 3, no-drug control VT 180, drug µg/ml: G* 0.6, PAA 90, combination 0.6+90
[7] = Example 3, drug µg/ml: G* 0.6, PAA 90, combination 0.6+90
[8] = Example 2, drug µg/ml: G* 3.0, PFA 80, combination 3.0+80
[9] = Example 3, drug µg/ml: G* 2.0, PAA 90, combination 2.0+90

SMILES | VT (virus titre) (HSV-1-PATTON [1]) | FTR (fold titre reduction) (HSV-1-PATTON [1]) | VT (virus titre) (HSV-2-EL6; [4]) | FTR (fold titre reduction) (HSV-2-EL6; [5]) | VT (virus titre) (HSV-2-EL6; [6]) | FTR (fold titre reduction) (HSV-2-EL6; [7]) | VT (virus titre) (HSV-2-EL3) | FTR (fold titre reduction) (HSV-2-EL3) | VT (virus titre) (HSV-1-227) | FTR (fold titre reduction) (HSV-1-227) | VT (virus titre) (HSV-2-EL1) | FTR (fold titre reduction) (HSV-2-EL1) | VT (virus titre) (HSV-1-PATTON [2]) | FTR (fold titre reduction) (HSV-1-PATTON [2]) | VT (virus titre) (HSV-2-EL4; [8]) | FTR (fold titre reduction) (HSV-2-EL4; [8]) | VT (virus titre) (HSV-2-EL4; [9]) | FTR (fold titre reduction) (HSV-2-EL4; [9]) | VT (virus titre) (HSV-1-EL11) | FTR (fold titre reduction) (HSV-1-EL11) | other results
Nc1nc2c(ncn2COCCO)c(=O)[nH]1 [ACG, 9 - [2 - hydroxyethoxymethyl]guanine] | 4.7 PFU per ml, x10^5 | 31 |  |  |  |  |  |  |  |  |  |  |  |  |  |  |  |  |  |  | 
O=c1[nH]c(=O)n([C@H]2C[C@H](O)[C@@H](CO)O2)cc1/C=C/Br [BVDU, bromovinyl-deoxyuridine] | 2.1 PFU per ml, x10^5 | 70 |  |  |  |  |  |  |  |  |  |  |  |  |  |  |  |  |  |  | 
Nc1nc2c(ncn2COC(CO)CO)c(=O)[nH]1 [G*, 9 - [[2 - hydroxy - 1 - (hydroxymethyl)ethoxy]methyl]guanine] | 1.1 PFU per ml, x10^5 | 130 | 40 PFU per ml, x10^5 | 3.8 | 0.90 PFU per ml, x10^5 | 200 | 10 PFU per ml, x10^5 | 7.7 | 0.25 PFU per ml, x10^5 | 110 | 8.9 PFU per ml, x10^5 | 19 | 140 PFU per ml, x10^5 | 24 | 21 PFU per ml, x10^5 | 36 | 5.9 PFU per ml, x10^5 | 130 | 0.37 PFU per ml, x10^5 | 22 | 
O=C(O)CP(=O)(O)O [PAA, phosphonoacetic acid] | 3.2 PFU per ml, x10^5 | 50 |  |  | 31.0 PFU per ml, x10^5 | 5.8 | 0.36 PFU per ml, x10^5 | 210 | 1.1 PFU per ml, x10^5 | 26 | 0.34 PFU per ml, x10^5 | 500 |  |  |  |  | 0.10 PFU per ml, x10^5 | 7,500 | 2.8 PFU per ml, x10^5 | 2.9 | drug concentrations in topical formulation reported as skin irritant [3]: > 100 mM
O=C(O)P(=O)(O)O [PFA, phosphonoformic acid] |  |  | 48 PFU per ml, x10^5 | 3.1 |  |  |  |  |  |  |  |  | 750 PFU per ml, x10^5 | 4.5 | 0.28 PFU per ml, x10^5 | 2,700 |  |  |  |  | skin harm of topical formulation ([3]; drug concentrations in excess of 100 mM): do not appear harmful
